Measured values taken from ChEMBL document CHEMBL1125950, “Synthesis, siderophore, and antimicrobial evaluation of a spermidine-based tricatecholate siderophore and carbacephalosporin conjugate” (1991).

Columns and labels:
Type in all cases: functional
Escherichia coli [1] = assay: Compound was evaluated for zone of stimulation of growth in Escherichia coli X580 at concentration of 5 nM
Escherichia coli [2] = assay: Compound was evaluated for zone of stimulation of growth in Escherichia coli X580 at concentration of 25 nM
Escherichia coli [3] = assay: Compound was evaluated for zone of stimulation of growth in Escherichia coli RW193 at concentration of 5 nM
Escherichia coli [4] = assay: Compound was evaluated for zone of stimulation of growth in Escherichia coli RWB18 at a concentration of 25 nM
Escherichia coli [5] = assay: Compound was evaluated for zone of stimulation of growth in Escherichia coli RWB18 at a concentration of 5 nM
Escherichia coli [6] = assay: Compound was evaluated for zone of stimulation of growth in Escherichia coli RW193 at concentration of 25 nM

| SMILES | Zone of stimulation (Escherichia coli [1]) [mm] | Zone of stimulation (Escherichia coli [2]) [mm] | Zone of stimulation (Escherichia coli [3]) [mm] | Zone of stimulation (Escherichia coli [4]) [mm] | Zone of stimulation (Escherichia coli [5]) [mm] | Zone of stimulation (Escherichia coli [6]) [mm] |
| --- | --- | --- | --- | --- | --- | --- |
| O=C(N[C@H]1COC(=O)[C@@H](NC(=O)c2cccc(O)c2O)COC(=O)[C@@H](NC(=O)c2cccc(O)c2O)COC1=O)c1cccc(O)c1O (stereo in doubt; form 2) [ENTEROBACTIN] | 30 | 40 | – | – | – | – |
| O=C(CCC(=O)N(CCCCNC(=O)c1cccc(O)c1O)CCCNC(=O)c1cccc(O)c1O)NCCCC[C@H](NC(=O)c1cccc(O)c1O)C(=O)N[C@@H]1C(=O)N2C(C(=O)O)=C(Cl)CC[C@H]12 (stereo in doubt) | – | 12 | 12 | 20 | 12 | – |
| O=C(CCC(=O)N(CCCCNC(=O)c1cccc(O)c1O)CCCNC(=O)c1cccc(O)c1O)NCCCC[C@H](NC(=O)c1cccc(O)c1O)C(=O)O (stereo in doubt) | – | 22 | 22 | 24 | 16 | 28 |
| O=C(O)CCC(=O)N(CCCCNC(=O)c1cccc(O)c1O)CCCNC(=O)c1cccc(O)c1O | – | – | – | 24 | – | – |
| O=C(CCC(=O)N(CCCCNC(=O)c1cccc(O)c1O)CCCNC(=O)c1cccc(O)c1O)NCCCC[C@H](NC(=O)c1cccc(O)c1O)C(=O)O (stereo in doubt; 7) | – | 20 | – | – | 24 | 24 |
| O=C(CCC(=O)N(CCCCNC(=O)c1cccc(O)c1O)CCCNC(=O)c1cccc(O)c1O)NCCCC[C@H](NC(=O)c1cccc(O)c1O)C(=O)N[C@@H]1C(=O)N2C(C(=O)O)=C(Cl)CC[C@H]12 (stereo in doubt; 8) | – | 0 | – | 16 | 10 | 18 |
| O=C(N[C@H]1COC(=O)[C@@H](NC(=O)c2cccc(O)c2O)COC(=O)[C@@H](NC(=O)c2cccc(O)c2O)COC1=O)c1cccc(O)c1O (stereo in doubt; form 1) [ENTEROBACTIN] | 24 | 38 | – | – | – | – |
